Measurements as given in paper PMC12040169 (PLOS Biology, 2025).

Test: in vitro
Conditions: human, hela cells, % viability

| Structure (SMILES) | viability at 28.5 h, 10 µM [%] | viability at 28.5 h, 10 µM (bulk resorufin, single well) [%] |
| --- | --- | --- |
| N#Cc1nonc1NCn1nnc2ccccc21 [CBK062650] | 81.7 | – |
| CC(=O)N1CCCN(C(=O)Cn2cnc3ccc(F)cc3c2=O)CC1 [CBK245206] | 106 | – |
| Cc1ccc(NC(=O)Nc2ccc3cc(Br)cnc3n2)c(C)c1 [CBK063269] | 85.8 | – |
| O=C(N[C@H]1CCN2C(=O)c3cc(-c4ccsc4)ccc3NC(=O)[C@@H]2C1)c1cccs1 [CBK289563] | 103 | – |
| Cc1ccnc(NCC2CCN(CC(=O)NC3(C#N)CCCC3)C2)c1 (centres unmarked) [CBK306128] | 85.8 | – |
| Cc1cccc(Nc2nc(N/N=C/c3c[nH]nc3-c3ccccc3)nc(N3CCC(C)CC3)n2)c1C [CBK262498] | 89.3 | – |
| CCC(CN1CCOCC1)n1cncc1-c1[nH]c2ccccc2c1C (centres unmarked) [CBK281800] | 106 | – |
| Cc1ncccc1OC1(C(=O)NCc2cn3c(n2)SCC3)CCNCC1 [CBK307649] | 103 | – |
| CC(=C\C(=O)O)/C(=C/c1ccc2ccccc2n1)C(=O)O [CBK278294N] | 87.7 | – |
| O=C(O)CCCCCNS(=O)(=O)c1ccc(Cl)cc1 [CBK261940] | 81.4 | – |
| CCOC(=O)c1cnn2c(O)cc(CN3CCCC3c3ccsc3)nc12 (centres unmarked) [CBK305647] | 96.1 | – |
| C=C(C)Cn1c(SCC(C)C)nnc1-c1scc(C)c1Cl [CBK200095] | 92.7 | – |
| COc1ccc(C(=O)N2CCC3(CCN(Cc4cc(OC)c(OC)c(OC)c4)C3)C2)cc1OC (centres unmarked) [CBK132149] | 100 | – |
| COc1ccc(C(NC(=O)COc2c(Cl)cc(C(=O)O)cc2Cl)C(C)C)cc1 (centres unmarked) [CBK295344] | 87.3 | – |
| Clc1ccc(C2N(Cc3ccccc3)CCC3CCCCN32)cc1Cl (centres unmarked) [CBK028769] | 86.6 | – |
| CC(C)(C)C(=O)N1CCc2cc(C(O)CN3CCCC3)ccc21 (centres unmarked) [CBK282923] | 93 | – |
| O=C(CN1CCC(c2ccccc2F)CC1)N1CCCC1 [CBK283578] | 98.2 | – |
| CCC(NC(=O)c1cn(CCOC)c2ccccc12)c1ccncc1 (centres unmarked) [CBK305186] | – | 95.7 |
| COc1ccc(C(=O)N2CCC3(CCCN(C(=O)c4ccco4)C3)C2)cc1OC (centres unmarked) [CBK131647] | 98.2 | – |
| COc1cccc(CN2CCCC(NC(=O)c3csc(C(C)=O)c3)C2)c1 (centres unmarked) [CBK307297] | 87.6 | – |
| COc1ccc(C(NC(C)=O)c2nccc3cc(OC)c(OC)cc23)cc1OC (centres unmarked) [CBK270219] | 94.6 | – |
| Cc1cc(=O)oc2cc(NC(=S)NNC(=O)C(C)Oc3ccc4c(c3)CCC4)ccc12 (centres unmarked) [CBK267031] | 91.4 | – |

| Structure (SMILES) | viability at 28.5 h, 10 µM [%] | viability at 28.5 h, 10 µM (bulk resorufin, single well) [%] |
| --- | --- | --- |
| NC(=O)C1(Cc2ccc(-c3ccccc3)cc2)CCN(C(=O)COc2ccccc2)CC1 [CBK285773] | 95.9 | – |
| COC(=O)c1ccsc1NS(=O)(=O)c1ccccc1 [CBK026667] | 88.7 | – |
| O=C(Nc1nn(Cc2ccc(Oc3ccccc3)cc2)c2ccccc12)c1ccno1 [CBK048224] | 97.8 | – |
| CS(=O)(=O)N[C@H]1CO[C@H]2[C@@H]1OC[C@H]2OC(=O)Nc1cccc2ccccc12 [CBK289469] | 89 | – |
| COc1ccccc1NC(=O)c1c(NC(=O)Cc2ccccc2)sc2c1CCC(C(C)(C)C)C2 (centres unmarked) [CBK264102] | 94.1 | – |
| Cc1ccc(-c2noc(CN(C(=O)c3ccc(Br)o3)C(C)C)n2)cc1 [CBK269440] | 83.2 | – |
| CC1CCN(CCNC(=O)CCc2nc3ccc(Cl)cc3[nH]2)CC1 [CBK281599] | 88.7 | – |
| O=C(Nc1ccccc1F)C1CCCN1c1nc(O)cc(C(F)(F)F)n1 (centres unmarked) [CBK004307] | 105 | – |
| Cc1nc2ccc(NC(=O)CC(c3ccccc3)c3ccccc3)cc2s1 [CBK293988] | 90 | – |
| COc1cc(-c2cn3ccnc3c(NCC3CC3)n2)ccc1O [CBK037538] | 106 | – |
| CCN1C(=O)COC[C@@H]1[C@H](O)c1ccc(NC(=O)Cc2ccc(OC)cc2)cc1 [CBK289676] | 90.2 | – |
| O=C(c1cnccc1C(F)(F)F)N1Cc2ccccc2C1 [CBK200323] | 105 | – |
| Cc1cc2c(s1)c1cnn(Cc3ccccn3)c(=O)c1n2C [CBK284227] | 65.4 | – |
| CC(C)c1ccccc1NC(=O)NC(=O)C1CCN(CCc2ccc(C#N)cc2)CC1 [CBK035010] | 90.3 | – |
| N/C(=N\OC(=O)c1ccccc1CCc1ccccc1)c1cccnc1 [CBK268188] | 91.5 | – |
| CCOc1ccccc1N(CC(=O)Nc1ccc(C)cc1C)S(C)(=O)=O [CBK263799] | 96 | – |
| COc1ccc([C@]23CN(C)C[C@H]2CCN(C(=O)Nc2cccc(Cl)c2)C3)cc1OC [CBK075104T] | 112 | – |
| C/C(=N/Nc1nc[nH]n1)c1ccc(Cl)c(Cl)c1 [CBK028722] | 80 | – |
| COc1ccc(Nc2ccc(-c3cccc(N(C)C)c3)cn2)cn1 [CBK037588] | 95.5 | – |
| CCCc1[nH]nc(O)c1C(=O)c1c(Cl)cccc1Cl [CBK093553] | 95.7 | – |
| O=C(O)c1cccc(NS(=O)(=O)c2cc(C(F)(F)F)cc(C(F)(F)F)c2)c1 [CBK155725] | 102 | – |
| CCc1cc2cc3c(cc2nc1SCC(=O)Nc1cccc(C(C)=O)c1)OCO3 [CBK108551] | 92.6 | – |
